In patent US10919935B2, “Antimicrobial peptide derived from myxinidin peptide and uses thereof” (INDUSTRY-ACADEMIC COOPERATION FOUNDATION, CHOSUN UNIVERSITY, priority 2015, dated 2021):
Residues, ends and D or L forms follow the SMILES beside them.

Columns and labels:
[1] = system: P. aeruginosa; assay: Anti-biofilm activity (crystal violet); format: cell-based, Pseudomonas aeruginosa
Protocol: (§1) To compare the antimicrobial activity of the peptide produced by the method of Example 1, the inventors of the present invention measured the biofilm inhibitory concentration value of the peptide showing no dissociation of bacterial cells.
(§2) Specifically, the Gram-negative bacteria and Gram-positive bacteria among the bacterial strains described in the above Table 2 were cultured in each medium to a mid-log phase. Then, after dilution to bacterial cell concentration of 5×10^5 cells/100 μl, the cells were inoculated to a microtiter plate (NUNC, USA). Thereafter, myxinidin 1, myxinidin 2, or myxinidin 3 peptides which have been synthesized in Example 1 above was diluted, 1/10 times for each, with physiological saline (PBS) solution in a 96-well plate. After adding the cells to a plate, the cells were cultured for 12 hours at 37° C. After removing the supernatant, the cells were fixed with 100% methanol and reacted for 2 hours with Crystal violet staining solution followed by rinsing for 3 times. Then, after dissolving in 95% ethanol, the absorbance was measured at a wavelength of 595 nm by using a microtiter plate reader (Merck Elisa reader, Germany) to determine the biofilm inhibitory concentration value of each bacterial strain. As a control group, myxinidin as a mother peptide was subjected to the same processes as above and the biofilm inhibitory concentration value of each bacterial strain was obtained.

[2] = system: S. aureus; assay: Anti-biofilm activity (crystal violet); format: cell-based, Staphylococcus aureus
Protocol: as §1, §2

[3] = system: Escherichia coli 1238; assay: MIC at salt concentration (Example 3); format: cell-based
Protocol: as §1, with “minimum growth” for “biofilm”, “(MIC), which is minimum concentration” for “value”, “cells, at salt concentration.” for “cells.”
(§3) Specifically, the bacterial strain described in the above Table 2 was cultured in each medium to a mid-log phase. Then, after dilution to bacterial cell concentration of 2×10^5 cells/100 μl, the cells were inoculated to a microtiter plate (NUNC, USA). Thereafter, myxinidin 1, myxinidin 2, or myxinidin 3 peptides which have been synthesized in Example 1 above was diluted, 1/2 times for each, with BSA+150 mM sodium chloride (NaCl) solution, physiological saline (PBS) solution, or 10 mM sodium phosphate (SP) solution in a 96-well plate. After adding the cells to a plate, the cells were cultured for 12 hours at 37° C. By using a microtiter plate reader (Merck Elisa reader, Germany), the absorbance was measured at a wavelength of 600 nm to determine the MIC value of each bacterial strain. As a control group, myxinidin as a mother peptide was subjected to the same processes as above and the MIC value of each bacterial strain was obtained.

[4] = system: Escherichia coli; assay: MIC at salt concentration (Example 3); format: cell-based
Protocol: as §1, with “minimum growth” for “biofilm”, “(MIC), which is minimum concentration” for “value”, “cells, at salt concentration.” for “cells.”
as §3

[5] = system: Escherichia coli 1229; assay: MIC at salt concentration (Example 3); format: cell-based
Protocol: as §1, with “minimum growth” for “biofilm”, “(MIC), which is minimum concentration” for “value”, “cells, at salt concentration.” for “cells.”
as §3

[6] = system: L. monocytogenes; assay: Anti-biofilm activity (crystal violet); format: cell-based, Listeria monocytogenes
Protocol: as §1, §2

[7] = system: S. typhimurium 8009; assay: MIC at salt concentration (Example 3); format: cell-based, Salmonella typhimurium
Protocol: as §1, with “minimum growth” for “biofilm”, “(MIC), which is minimum concentration” for “value”, “cells, at salt concentration.” for “cells.”
as §3

[8] = system: S. typhimurium 8013; assay: MIC at salt concentration (Example 3); format: cell-based, Salmonella typhimurium
Protocol: as §1, with “minimum growth” for “biofilm”, “(MIC), which is minimum concentration” for “value”, “cells, at salt concentration.” for “cells.”
as §3

[9] = system: S. typhimurium; assay: MIC at salt concentration (Example 3); format: cell-based, Salmonella typhimurium
Protocol: as §1, with “minimum growth” for “biofilm”, “(MIC), which is minimum concentration” for “value”, “cells, at salt concentration.” for “cells.”
as §3

[10] = NaCl (BSA+150 mM sodium chloride)

Antimicrobial activity (MIC) according to salt concentration [3, 10]: >32
Antimicrobial activity (MIC) according to salt concentration ([3]; PBS): >32
Antimicrobial activity (MIC) according to salt concentration ([3]; SP (10 mM sodium phosphate)): >32
Antimicrobial activity (MIC) according to salt concentration [4, 10]: >32
Antimicrobial activity (MIC) according to salt concentration ([4]; PBS): >32
Antimicrobial activity (MIC) according to salt concentration ([4]; SP (10 mM sodium phosphate)): >32
Antimicrobial activity (MIC) according to salt concentration [5, 10]: >32
Antimicrobial activity (MIC) according to salt concentration ([5]; PBS): >32
Antimicrobial activity (MIC) according to salt concentration ([5]; SP (10 mM sodium phosphate)): >32
Antimicrobial activity (MIC) according to salt concentration [7, 10]: >32
Antimicrobial activity (MIC) according to salt concentration ([7]; PBS): >32
Antimicrobial activity (MIC) according to salt concentration ([7]; SP (10 mM sodium phosphate)): >32
Antimicrobial activity (MIC) according to salt concentration [8, 10]: >32
Antimicrobial activity (MIC) according to salt concentration ([8]; PBS): >32
Antimicrobial activity (MIC) according to salt concentration ([8]; SP (10 mM sodium phosphate)): >32
Antimicrobial activity (MIC) according to salt concentration [9, 10]: >32
Antimicrobial activity (MIC) according to salt concentration ([9]; PBS): >32
Antimicrobial activity (MIC) according to salt concentration ([9]; SP (10 mM sodium phosphate)): >32
Compound: CC[C@H](C)[C@H](NC(=O)CN)C(=O)N[C@@H](Cc1c[nH]cn1)C(=O)N[C@@H](Cc1c[nH]cn1)C(=O)N[C@H](C(=O)N[C@@H](CC(C)C)C(=O)N[C@@H](CCCCN)C(=O)N[C@@H](Cc1ccc(O)cc1)C(=O)NCC(=O)N[C@@H](CCCCN)C(=O)N1CCC[C@H]1C(=O)N[C@@H](CO)C(N)=O)[C@@H](C)CC [Myxinidin 1, GIHHILKYGKPS-NH2] (H-GIHHILKYGKPS-NH2; N-terminus assumed)
Biofilm forming ability ([1]; peptide 0.25 μM): 100%
Biofilm forming ability ([1]; peptide 0.5 μM): 100%
Biofilm forming ability ([1]; peptide 1 μM): 94%
Biofilm forming ability ([1]; peptide 2 μM): 93%
Biofilm forming ability ([1]; peptide 4 μM): 92%
Biofilm forming ability ([1]; peptide 8 μM): 92%
Biofilm forming ability ([1]; peptide 16 μM): 89%
Biofilm forming ability ([1]; peptide 32 μM): 88%
Biofilm forming ability ([2]; peptide 0.25 μM): 98%
Biofilm forming ability ([2]; peptide 0.5 μM): 88%
Biofilm forming ability ([2]; peptide 1 μM): 87%
Biofilm forming ability ([2]; peptide 2 μM): 86%
Biofilm forming ability ([2]; peptide 4 μM): 83%
Biofilm forming ability ([2]; peptide 8 μM): 83%
Biofilm forming ability ([2]; peptide 16 μM): 79%
Biofilm forming ability ([2]; peptide 32 μM): 75%
Biofilm forming ability ([6]; peptide 0.25 μM): 100%
Biofilm forming ability ([6]; peptide 0.5 μM): 100%
Biofilm forming ability ([6]; peptide 1 μM): 100%
Biofilm forming ability ([6]; peptide 2 μM): 100%
Biofilm forming ability ([6]; peptide 4 μM): 99%
Biofilm forming ability ([6]; peptide 8 μM): 98%
Biofilm forming ability ([6]; peptide 16 μM): 97%
Biofilm forming ability ([6]; peptide 32 μM): 93%
